Reference: patent publication US9345245B2, “Synthetic compounds for vegetative ABA responses” (THE REGENTS OF THE UNIVERSITY OF CALIFORNIA, priority 2012, dated 2016)

What was measured:
Arabidopsis seeds = assay: Arabidopsis seed germination inhibition; type: in vivo; conditions: pyr1/pyl1/pyl2/pyl4 quadruple mutant; 5 μM
Method: FIG. 5. Novel ABA agonists inhibit germination of Arabidopsis seeds more strongly than pyrabactin. (A) and (B) Comparison of seed germination inhibition by ABA agonists. (C) and (D) the effects of ABA and LC66C6 (also called quinabactin) on Arabidopsis ABA signaling- and biosynthesis-deficient mutants on germination (C) and seedling establishment (D). Seeds were sown on ½×MS agar plate containing chemicals, and were stored at 4° C. for 4 days, then transferred at 22±2° C. Photographs (A and C) and germination (B) or green cotyledon (D) scores were assessed after a 4-day incubation under continuous illumination. […] For Arabidopsis germination and hypocotyl growth inhibition analysis, seeds after-ripened about 4 weeks were surface-sterilized with a solution containing 5% NaClO and 0.05% Tween-20 for 10 minutes, and rinsed with water four times. Sterilized seeds were suspended with 0.1% agar and sowed on the 0.8% solidified agar medium containing ½ Murashige and Skoog (MS) salts (Sigma-Aldrich) in the presence of chemicals and were stored at 4° C. for 4 days, then transferred at 22° C. under the dark or light. Germination was determined after a 4-day incubation, whereas hypocotyl growth was photographed after 6-day incubation.

ABA-responsive genes = assay: Quantitative RT-PCR of ABA-responsive genes in Arabidopsis; type: in vivo
Method: FIG. 9. LC66C6 induces numerous ABA-responsive genes. […] Ten-day old seedlings were treated with carrier solvent (DMSO) or either 25 μM ABA, pyrabactin or LC66C6 for 8 hours. Total RNA was then prepared labeled and hybridized to ATH1 microarrays. Data plotted are log 2 transformed average expression values for ˜13K probes that were detectable across all experiments. Data shown are averages determined from triplicate biological replicates. (C) and (D) show the expression of a reporter gene in different plant tissues after treatment with vehicle (DMSO), pyrabactin, LC66C6, or (+)-ABA.
Total RNA was isolated using Plant RNA purification reagent (Invitrogen, USA) according to the manufacturer's instructions. cDNA was synthesized from 1 μg of total RNA using the QantiTec reverse transcription kit (Qiagen, USA). Real-time PCR using Maxima® SYBR Green/Fluorescein qPCR Master Mix (Fermentas) was performed with the iQ5 real-time PCR detection system (Bio-Rad, Hercules, Calif.). The relative amounts of target mRNAs were determined using the relative standard curve method and were normalized by relative amount of internal control mRNA. Biological triplicate experiments were performed.

[1] = tested on: CYP707A ABA-hydroxylating enzymes; assay: Growth and germination in CYP707A overexpressing and cyp707a double mutant plants; type: in vivo, Arabidopsis; conditions: 40 μM
Excerpt: FIG. 12. LC66C6 sensitivity is not influenced by the CYP707A ABA-hydroxylating enzymes.

Chlamydomonas = assay: Colony growth of Chlamydomonas with and without salinity and osmotic stress; type: in vivo; conditions: with and without salinity and osmotic stress
Method: FIG. 17. The effect of ABA and its agonists in Physcomitrella patens and Chlamydomonas. Protonemal growth images (A) and quantitative analysis (B) of the effects of ABA and agonists on Phsycomitrella patens. Protonema were grown on 200 μM of specific test chemical for 10 days. […] Pyrabactin bleached protonema. (C) The expression of ABA-responsive genes of Physcomitrella patens. Protonema were treated with 200 μM chemical solutions for 3 h. (D) Colony growth of Chlamydomonas on the chemical with salinity stress and osmotic stress. There was no effect of ABA and LC66C6 on the Chlamydomonas growth with and without stresses.

PYR/PYL receptors = assay: Receptor-mediated PP2C inhibition assay, all ABA receptors tested; type: biochemical, Arabidopsis; conditions: 10 μM; in the presence of all ABA receptors tested
Method: HAB1 and PYL proteins were expressed and purified as described previously (Park S Y, et al. (2009) Abscisic Acid Inhibits Type 2C Protein Phosphatases via the PYR/PYL Family of START Proteins. Science 324(5930):1068-1071), with minor modifications. To obtain GST-HAB1, -ABI1 and -ABI2 fusion proteins, the HAB1 cDNA was cloned into pGex-2T whereas ABI1 and ABI2 cDNAs were cloned into the vector pGex-4T-1. Expression was conducted in BL21[DE3]pLysS host cells. Transformed cells were pre-cultured overnight, transferred to LB medium and cultured at 30° C. to culture A600 of 0.5. The culture was then cooled on ice and MnCl2 added to 4 mM and IPTG added to 0.3 mM. After 16 hours incubation at 15° C., cells were harvested and recombinant proteins were purified on glutathione agarose as described previously (Park S Y, et al. (2009). To obtain 6×His-PYL receptor fusion proteins, receptor cDNAs for all 13 ABA receptors were cloned into the vector pET28 and expressed and purified as described previously (Mosquna A, et al. (2011) Potent and selective activation of abscisic acid receptors in vivo by mutational stabilization of their agonist-bound conformation. PNAS 108(51):20838-20843); this yielded soluble and functional protein (assessed using receptor-mediated PP2C inhibition assays) for all receptors except PYL7, PYL11 and PYL12. […]

SMILES: CC1=CC(=O)CC(C)(C)C1(O)/C=C/C(C)=C\C(=O)O (single isomer, unassigned; (+)) [(+)-ABA, Abscisic acid]
- inhibition of germination in quadruple mutant (Arabidopsis seeds): inhibit germination in the quadruple mutant
- induction of MAPKKK18, RD29A, and RD29B mRNAs (ABA-responsive genes; Col and Ler ecotypes and pyr1, pyl1, ply2, pyl3 and pyl4 single mutants): induced
- expression of ABF3, GBF3, NCED3, and RD29A (ABA-responsive genes; Col wild-type plants): induced expression of ABF3, GBF3, NCED3, and RD29A in a dose dependent manner
- expression of ABF3, GBF3, NCED3, and RD29A (ABA-responsive genes; abi1-1 and PYR/PYL quadruple mutant plants): induction levels were impaired
- inhibition of plant growth and germination in plants that overexpress CYP707A ([1]; CYP707AOX vs wild-type): reduced
- inhibition of plant growth and germination in cyp707a double mutant ([1]; cyp707a double mutant vs wild-type): enhanced
- effect on growth of Chlamydomonas (Chlamydomonas): no effect
- PPC2 enzyme activity of HBA1, ABI1, and ABI2 inhibited (PYR/PYL receptors): > 90%
